Our source for the GI50 and TGI values is PubChem BioAssay (NCI).

Some test systems named below: HOP-92 NSCLC; UACC-62 melanoma; RPMI-8226 leukemia; CCRF-CEM leukemia; MALME-3M melanoma; OVCAR-8 ovarian; HT29 colon; U251 CNS; MDA-N.
Assay in all cases: NCI tumour cell line growth inhibition, 48 h

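Five compound concentrations were applied to cells in 96-well plates for 48 hours; endpoints were derived by simple linear interpolation of the resulting dose-response curve. At the GI50, growth is halved. TGI: concentration producing complete growth inhibition.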

Regarding `C[C@@H](Oc1cc(-c2cnn(C3CC4(CNC4)C3)c2)cnc1N)c1c(Cl)ccc(F)c1Cl`, the GI50 in the assay with HOP-92 NSCLC is 0.848 µM; in the assay with UACC-62 melanoma it was 3.64 µM; in the assay with RPMI-8226 leukemia it was 3.22 µM; in the assay with CCRF-CEM leukemia, 0.681 µM; in the assay with MALME-3M melanoma, 1.53 µM; in the assay on OVCAR-8 ovarian it was 10.4 µM. Also, the values for the GI50 in the assay with HT29 colon and in the assay on U251 CNS were 1.7 µM and 5.01 µM, respectively. Also, the TGI in the assay with HOP-92 NSCLC came to 5.12 µM; in the assay with UACC-62 melanoma it was 13.8 µM; in the assay on RPMI-8226 leukemia, 13 µM; in the assay with CCRF-CEM leukemia it was 6.97 µM; with MALME-3M melanoma it was 3.89 µM; in the assay on OVCAR-8 ovarian, 24.3 µM. The figures for the TGI in the assay with HT29 colon and with U251 CNS were 5.98 µM and 19.1 µM, respectively.

With `Nc1nc2c(c(=O)[nH]1)N=C(COP(=O)(O)OP(=O)(O)O)CN2`, the TGI with MDA-N, in the assay on UACC-62 melanoma, with RPMI-8226 leukemia, in the assay with CCRF-CEM leukemia, with MALME-3M melanoma and with OVCAR-8 ovarian was > 100 µM in each case. The TGI in the assay on HT29 colon and in the assay on U251 CNS was > 100 µM each time.

In the case of `O=c1c(-c2ccc3c(c2)OCO3)coc2c(CO)c(O)ccc12`, the GI50 is 2.02 µM in the assay with HOP-92 NSCLC; 1.66 µM in the assay on UACC-62 melanoma; 3.64 µM in the assay with RPMI-8226 leukemia; 3.44 µM with CCRF-CEM leukemia; 1.57 µM with MALME-3M melanoma; 4.42 µM with OVCAR-8 ovarian. For the same compound, the values for the GI50 in the assay on HT29 colon and with U251 CNS were 16.9 µM and 1.92 µM, respectively. Further, the TGI is 4.86 µM with HOP-92 NSCLC; 3.59 µM with UACC-62 melanoma; 53.6 µM with RPMI-8226 leukemia; > 100 µM with CCRF-CEM leukemia; 3.47 µM in the assay with MALME-3M melanoma; 30.5 µM in the assay with OVCAR-8 ovarian. Besides, the TGI with HT29 colon was determined as 44.8 µM; with U251 CNS, 5.03 µM.

Regarding `COc1ccc(Oc2nc(Nc3ccc(N4CCOCC4)cc3)ncc2NC(=O)Nc2cc(OC)cc(OC)c2)cc1`, the GI50 with HOP-92 NSCLC is 1.26 µM; with UACC-62 melanoma, 1.99 µM; in the assay on RPMI-8226 leukemia, 5.21 µM; with CCRF-CEM leukemia, > 33.3 µM; with MALME-3M melanoma, 0.969 µM; in the assay with OVCAR-8 ovarian it was 4.65 µM. Also, the GI50 is 1.42 µM in the assay with HT29 colon and 1.38 µM with U251 CNS. In addition, the TGI with HOP-92 NSCLC was 5.1 µM; in the assay with UACC-62 melanoma, 7.41 µM; in the assay on RPMI-8226 leukemia it was 32.6 µM; with CCRF-CEM leukemia, > 33.3 µM; in the assay with MALME-3M melanoma it was 3.27 µM; with OVCAR-8 ovarian it was > 33.3 µM. In addition, the TGI in the assay with HT29 colon stood at 6.69 µM; in the assay with U251 CNS, 5.88 µM.

For the compound `NS(=O)(=O)c1cccc(-c2cc3ccncc3cc2OCc2ccccc2)c1`, the GI50 in the assay with HOP-92 NSCLC was 4.39 µM; in the assay with UACC-62 melanoma, 9.76 µM; with RPMI-8226 leukemia, 6.66 µM; in the assay on CCRF-CEM leukemia it was 8.43 µM; in the assay on MALME-3M melanoma, 14.7 µM; with OVCAR-8 ovarian, 10.1 µM. The GI50 in the assay on HT29 colon was 6.05 µM; in the assay on U251 CNS, 13 µM. For the same compound, the TGI with HOP-92 NSCLC, with UACC-62 melanoma, in the assay on RPMI-8226 leukemia, in the assay on CCRF-CEM leukemia, in the assay on MALME-3M melanoma and with OVCAR-8 ovarian was > 25 µM in each case. Further, the values for the TGI in the assay with HT29 colon and in the assay with U251 CNS were 16.8 µM and > 25 µM, respectively.

For the compound `Oc1[nH]c2ccc(Cl)cc2c1/C=c1/ccc2c(c1)N=C(c1ccc(C(F)(F)F)cc1)N=2`, the GI50 in the assay on HOP-92 NSCLC is 1.68 µM; with UACC-62 melanoma, 1.71 µM; in the assay on RPMI-8226 leukemia it was 2.21 µM; with CCRF-CEM leukemia, 2.43 µM; with MALME-3M melanoma, 2.34 µM; with OVCAR-8 ovarian, 3.17 µM. Also, the GI50 in the assay with HT29 colon was 1.78 µM; with U251 CNS, 1.74 µM. Moreover, the TGI in the assay with HOP-92 NSCLC came out at 4.35 µM; in the assay with UACC-62 melanoma, 4.06 µM; in the assay on RPMI-8226 leukemia it was 5.44 µM; in the assay on CCRF-CEM leukemia, 6.96 µM; with MALME-3M melanoma, 6.57 µM; with OVCAR-8 ovarian, 11.4 µM. Further, the TGI was 3.94 µM in the assay on HT29 colon and 3.47 µM in the assay with U251 CNS.

As to `O=[N+]([O-])c1ccc(Oc2cccc(C(F)(F)F)c2)c([N+](=O)[O-])c1`, the GI50 is 1.25 µM in the assay with HOP-92 NSCLC; 3.78 µM with UACC-62 melanoma; 2.6 µM in the assay on RPMI-8226 leukemia; 0.296 µM in the assay with CCRF-CEM leukemia; 5.66 µM with MALME-3M melanoma; 2.48 µM with OVCAR-8 ovarian. The GI50 in the assay with HT29 colon was 4.68 µM; with U251 CNS, 3.61 µM. The TGI with HOP-92 NSCLC came to 5.39 µM; with UACC-62 melanoma, 15.2 µM; in the assay on RPMI-8226 leukemia, 7.62 µM; in the assay with CCRF-CEM leukemia, 3.18 µM; with MALME-3M melanoma, 23.9 µM; in the assay with OVCAR-8 ovarian, 8.16 µM. Moreover, the values for the TGI in the assay on HT29 colon and in the assay on U251 CNS were 16.2 µM and 14.2 µM, respectively.

On to `Cc1ccc2c(n1)C(=O)C(Cl)=C(Nc1ccc(N3CCN(C)CC3)cc1)C2=O`, for which the GI50 is 1.68 µM in the assay on HOP-92 NSCLC; 1.71 µM in the assay on UACC-62 melanoma; 2.68 µM in the assay with RPMI-8226 leukemia; 3.07 µM in the assay on CCRF-CEM leukemia; 1.62 µM in the assay with MALME-3M melanoma; 1.85 µM in the assay on OVCAR-8 ovarian. Besides, the GI50 in the assay on HT29 colon was 2.19 µM; with U251 CNS it was 1.79 µM. In addition, the TGI worked out at 3.21 µM with HOP-92 NSCLC; 3.12 µM with UACC-62 melanoma; 7.28 µM in the assay with RPMI-8226 leukemia; 56.4 µM with CCRF-CEM leukemia; 2.99 µM in the assay with MALME-3M melanoma; 3.4 µM with OVCAR-8 ovarian. Also, the figures for the TGI with HT29 colon and in the assay on U251 CNS were 4.92 µM and 3.19 µM, respectively.

On to `C=C1C(=O)O[C@H]2[C@H]1CC/C(COC(=O)c1cccc3ccccc13)=C\CC[C@@]1(C)O[C@@H]21`, for which the GI50 in the assay with HOP-92 NSCLC was 1.01 µM; in the assay on UACC-62 melanoma, 1.47 µM; in the assay on RPMI-8226 leukemia, 1.35 µM; in the assay on CCRF-CEM leukemia, 0.327 µM; in the assay on MALME-3M melanoma, 1.76 µM; in the assay on OVCAR-8 ovarian, 1.7 µM. Moreover, the GI50 is 0.696 µM with HT29 colon and 1.39 µM with U251 CNS. For the same compound, the TGI worked out at 2.61 µM in the assay on HOP-92 NSCLC; 2.94 µM in the assay on UACC-62 melanoma; 4.54 µM with RPMI-8226 leukemia; 12.4 µM in the assay with CCRF-CEM leukemia; 3.66 µM with MALME-3M melanoma; 5.42 µM in the assay with OVCAR-8 ovarian. The TGI in the assay on HT29 colon is 2.42 µM; in the assay with U251 CNS it was 2.68 µM.
